According to PubChem BioAssay (NCI):
Values joined by “and” are separate entries in the source; they are usually repeats but may differ in a detail not shown here. Equal entries are not always repeated.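 Dose response: 5 concentrations. Exposure: 48 h. Format: 96-well plates. Endpoint: linear interpolation; highest concentration if not reached. Here, GI50 denotes the concentration required for 50% inhibition of growth. The concentration for full growth arrest is given as TGI.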

Experiments:
Test in all cases: growth of human tumour cells (NCI), 48 h
[1] = tested on: HS 578T breast
[2] = tested on: MDA-MB-435
[3] = tested on: TK-10 renal
[4] = tested on: MALME-3M melanoma
[5] = tested on: UACC-62 melanoma
[6] = tested on: PC-3 prostate
[7] = tested on: OVCAR-3 ovarian
[8] = tested on: KM12 colon
[9] = tested on: A549 NSCLC
[10] = tested on: UO-31 renal

| Compound | TGI [1] | TGI [2] | TGI [3] | TGI [4] | TGI [5] [µM] | TGI [6] | TGI [7] | TGI [8] | TGI [9] | TGI [10] | GI50 [1] [µM] | GI50 [2] [µM] | GI50 [3] [µM] | GI50 [4] [µM] | GI50 [5] [µM] | GI50 [6] [µM] | GI50 [7] [µM] | GI50 [8] [µM] | GI50 [9] [µM] | GI50 [10] [µM] |
| --- | --- | --- | --- | --- | --- | --- | --- | --- | --- | --- | --- | --- | --- | --- | --- | --- | --- | --- | --- | --- |
| CC1(C)CCC(C)(C)c2c1ccc(O)c2Cc1c(O)ccc2c1C(C)(C)CCC2(C)C | 8.85 µM | 3.48 µM | 3.87 µM | 6.6 µM | 4.33 | 3.79 µM | 4.32 µM | 3.91 µM | 5.57 µM | 4.04 µM |  |  |  |  |  |  |  |  |  |  |
| O=C(CCC(C(=O)c1ccccc1)c1ccccc1)c1ccccc1 (stereo not drawn) | > 100 µM | 6.03 µM | > 100 µM | 63.8 µM | > 100 | > 100 µM | > 100 µM | > 100 µM | > 100 µM | > 100 µM | 11.8 | 2.01 | 38.6 | 5.51 | 7.15 | 7.94 | 5.78 | 3.94 | 7.29 | 7.28 |
| CC(=O)[C@@]1(O)[C@H](C)C[C@H]2[C@@H]3C=C(C)C4=Cc5c(cnn5-c5ccccc5)C[C@]4(C)[C@H]3[C@@H](O)C[C@@]21C | 12.9 µM | 8.7 µM | 6.08 µM | 5.36 µM | 5.76 | 10.1 µM | 4.84 µM | 4.5 µM | 13.9 µM | 7.03 µM | 2.97 | 2.44 | 1.97 | 1.76 | 2.24 | 2.06 | 2.08 | 1.69 | 1.82 | 2.08 |
| Cc1ncsc1-c1ccc(CNC(=O)[C@@H]2C[C@@H](O)CN2C(=O)[C@@H](NC(=O)C2(C#N)CC2)C(C)(C)C)cc1 | > 100 µM | > 100 µM | > 100 µM | > 100 µM | > 100 | > 100 µM | > 100 µM | > 100 µM | > 100 µM | > 100 µM | 50.5 | > 100 | > 100 | > 100 | 62.6 | > 100 | > 100 | > 100 | > 100 | > 100 |
| COc1cc(OC)c(NC(=O)c2cc3ccccc3cc2O)cc1Cl | 8.95 µM | 9.69 µM | 8.57 µM | 6.04 µM | 14.1 | 8.02 µM | 4.74 µM | 11.4 µM | 10.5 µM | 8.33 µM | 2.72 | 2.84 | 3.15 | 1.89 | 2.87 | 2.13 | 2.02 | 3.07 | 3.38 | 1.71 |
| CCOC(=O)[C@@H](C)C[C@H](Cc1ccccc1)NC(=O)c1csc([C@@H](C[C@H](C(C)C)N(C)C(=O)[C@H](CC)NC(=O)[C@H]2CCCCN2C)OC(C)=O)n1 | > 15.5 µM | 0.00169 µM | > 16.7 µM | > 16.7 µM | > 16.7 | > 16.7 µM | 0.00453 µM | > 16.7 µM | > 16.7 µM | > 16.7 µM | 0.00405 | < 0.00167 |  | < 0.00167 | < 0.00167 | < 0.00167 | < 0.00167 | < 0.00167 | 0.00415 | 0.0128 |
| CCCCN(CCCC)CCCn1c(=O)c2c3ccccc3n(C)c2n2nnc(-c3ccccc3)c12 | > 100 µM | > 100 µM | 22.4 µM | 90 µM | 84.4 | 47.4 µM | > 100 µM | > 100 µM | > 100 µM | 46.8 µM | 39.9 | 39 | 1.9 | 28.4 | 22.4 | 18.2 | 48.6 | 34.3 | 43.9 | 6.06 |
| CN(C)CCOC(c1ccccc1)c1ccccc1 | 51.3 µM and > 100 µM | 44.1 µM and > 100 µM | 59.7 µM and > 100 µM | 46 µM and > 100 µM | 48.4 | 44.4 µM and > 100 µM | 51.1 µM and > 100 µM | 68.1 µM and > 100 µM | 51.7 µM and > 100 µM | 47.4 µM and > 100 µM | 32.2 | 24.6 | 45.9 | 25.2 | 32.7 |  | 36 | 32.8 | 35.9 | 32.6 |
| COc1ccc(-c2nc(N3CCN(C(=O)C4CCCCC4)CC3)c3c4c(sc3n2)CCCC4)cc1 | > 100 µM | > 100 µM | 90.8 µM | > 100 µM | > 100 | > 100 µM | > 100 µM | > 100 µM | > 100 µM | > 100 µM | 24.7 | > 100 | 34.4 | 92.1 | 40.8 | 26.1 | > 100 | > 100 | 50.1 | 95.4 |
| Cc1cc(Oc2ccc3nc(COc4ccc(CC5SC(=O)NC5=O)cc4)n(C)c3c2)cc(C)c1N (stereo not drawn) | > 100 µM | > 100 µM | > 91.6 µM | > 100 µM | 72.4 | > 90.1 µM | > 70.9 µM | > 76.2 µM | > 87.7 µM | > 81.6 µM | > 57.3 | 27.4 | > 52.6 | > 53.3 | 22.5 | 31.8 | 28 | 26.5 | 29.5 | 24.8 |
| O=C(NCc1ccncc1)C12CC3CC(C1)CC(c1ccc(Cl)cc1)(C3)C2 | 31.7 µM | 25.3 µM | 29.5 µM | 27.4 µM | 18.7 | 23.1 µM | 27.3 µM | 27.8 µM | 30.8 µM | 22 µM | 12.9 | 12.7 | 15.3 | 13.3 | 5.02 | 8.86 | 13.2 | 13.6 | 15 | 10.2 |
| CCc1ccc2c(c1)N(CCO)C1=C(C(=O)OC1)C2c1cccc(Cl)c1 (stereo not drawn) | 32.2 µM | 0.787 µM | 28.8 µM | 27.4 µM | 18.5 | 23.4 µM | 1.68 µM | 12.6 µM | 18.6 µM | 20.9 µM | 1.37 | 0.195 | 6.69 | 2.82 | 0.537 | 0.687 | 0.364 | 0.433 | 0.784 | 2.52 |
